# Patent publication US11267812B2 (Mirati Therapeutics, Inc., priority 2016, dated 2022)
# Tested on: Phospho-ERK in NCI-H358 cells expressing KRas G12C
# Test: Cellular inhibition of KRas G12C by Phospho-ERK measurement in NCI-H358 cells
# Assay type: cell-based
# Details: Homo sapiens; NCI-H358 cells, 3 hours compound treatment; read-out: IC50 (pERK(Thr202/Tyr204) normalized with GAPDH)
# Method in brief: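 After 8–12 h attachment, NCI-H358 cells were treated with compounds for 3 h (0.5% DMSO final), fixed, methanol-permeabilized and immunostained. pERK(Thr202/Tyr204) was read by infrared imaging and normalized to GAPDH as percent of DMSO control. IC50 came from a 4-parameter fit.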
row,Compound,IC50 [nM]
1,"C=CC(=O)N1CCN(c2nc(OC[C@@H]3CCCN(C)C3)nc3c2CCN(c2cc(O)cc4ccccc24)C3)CC1 [Example 192, (R)-1-(4-(7-(3-hydroxynaphthalen-1-yl)-2-((1-methylpiperidin-3-yl)methoxy)-5,6,7,8-tetrahydropyrido[3,4-d]pyrimidin-4-yl)piperazin-1-yl)prop-2-en-1-one]",1 to 1000
2,"C=CC(=O)N1CCN(c2nc(O[C@H](C)[C@H]3CCCN3C)nc3c2CCN(c2cc(O)cc4ccccc24)C3)CC1 [Example 129, 1-[4-[7-(3-hydroxy-1-naphthyl)-2-[(1R)-1-[(2R)-1-methylpyrrolidin-2-yl]ethoxy]-6,8-dihydro-5H-pyrido[3,4-d]pyrimidin-4-yl]piperazin-1-yl]prop-2-en-1-one]",1 to 1000
3,"C=CC(=O)N1CCN(c2nc(OCCCN3CCOCC3)nc3c2CCN(c2cc(O)cc4ccccc24)C3)CC1 [Example 74, 1-(4-(7-(3-hydroxynaphthalen-1-yl)-2-(3-morpholinopropoxy)-5,6,7,8-tetrahydropyrido[3,4-d]pyrimidin-4-yl)piperazin-1-yl)prop-2-en-1-one]",1 to 1000
4,"C=CC(=O)N1CCN(c2nc(OC[C@H]3CCCN3C)nc3c2CCN(c2cc(O)cc4ccccc24)C3)CC1CC#N (stereo partly drawn) [Example 178, 2-[4-[7-(3-hydroxy-1-naphthyl)-2-[[(2R)-1-methylpyrrolidin-2-yl]methoxy]-6,8-dihydro-5H-pyrido[3,4-d]pyrimidin-4-yl]-1-prop-2-enoyl-piperazin-2-yl]acetonitrile]",1 to 1000
5,"C=CC(=O)N1CCN(c2nc(OCCN3CCC[C@H](F)C3)nc3c2CCN(c2cc(O)cc4ccccc24)C3)CC1 [Example 111, (S)-1-(4-(2-(2-(3-fluoropiperidin-1-yl)ethoxy)-7-(3-hydroxynaphthalen-1-yl)-5,6,7,8-tetrahydropyrido[3,4-d]pyrimidin-4-yl)piperazin-1-yl)prop-2-en-1-one]",1 to 1000
6,"C=CC(=O)N1CCN(c2nc(OC[C@@H]3C[C@H](OC)CN3C)nc3c2CCN(c2cccc4ccccc24)C3)CC1CC#N (stereo partly drawn) [Example 222, 2-(1-acryloyl-4-(2-(((2S,4S)-4-methoxy-1-methylpyrrolidin-2-yl)methoxy)-7-(naphthalen-1-yl)-5,6,7,8-tetrahydropyrido[3,4-d]pyrimidin-4-yl)piperazin-2-yl)acetonitrile]",1 to 1000
7,"C=CC(=O)N1CCN(c2nc(OC[C@@H]3CCCCN3C)nc3c2CCN(c2cc(O)cc4ccccc24)C3)CC1 [Example 196, (S)-1-(4-(7-(3-hydroxynaphthalen-1-yl)-2-((1-methylpiperidin-2-yl)methoxy)-5,6,7,8-tetrahydropyrido[3,4-d]pyrimidin-4-yl)piperazin-1-yl)prop-2-en-1-one]",1 to 1000
8,"C=CC(=O)N1CCN(c2nc(OCCCN3CCCC3)nc3c2CCN(c2cc(O)cc4ccccc24)C3)CC1 [Example 39, 1-(4-(7-(3-hydroxynaphthalen-1-yl)-2-(3-(pyrrolidin-1-yl)propoxy)-5,6,7,8-tetrahydropyrido[3,4-d]pyrimidin-4-yl)piperazin-1-yl)prop-2-en-1-one]",1 to 1000
9,"C=CC(=O)N1CCN(c2nc(O[C@@H](C)[C@@H]3CCCN3C)nc3c2CCN(c2cc(O)cc4ccccc24)C3)CC1 [Example 130, 1-(4-(7-(3-hydroxynaphthalen-1-yl)-2-((S)-1-((S)-1-methylpyrrolidin-2-yl)ethoxy)-5,6,7,8-tetrahydropyrido[3,4-d]pyrimidin-4-yl)piperazin-1-yl)prop-2-en-1-one]",1 to 1000
10,"C=CC(=O)N1CCN(c2nc(OCCCN3C[C@@H]4C[C@H]3CO4)nc3c2CCN(c2cccc4ccccc24)C3)CC1CC#N (stereo partly drawn) [Example 154, 2-[4-[7-(1-naphthyl)-2-[3-[(1S,4S)-2-oxa-5-azabicyclo[2.2.1]heptan-5-yl]propoxy]-6,8-dihydro-5H-pyrido[3,4-d]pyrimidin-4-yl]-1-prop-2-enoyl-piperazin-2-yl]acetonitrile]",1 to 1000
